Patent US10144745B2, “Chimeric compounds targeting proteins, compositions, methods, and uses thereof” (BioTheryX, Inc., priority 2016, dated 2018)
pIC50: −log10 of the molar value.

Assays:
FES = molecular target: T1, FES (Homo sapiens, UniProt P07332); experiment: Kinase Inhibition Assay (kinase-tagged phage / affinity bead competition binding, qPCR); conditions: Compounds were tested at 500 nM; read-out: FES (Percent Control)
T1 construct: made in house
Protocol: Kinase-tagged T7 phage strains were grown in parallel in 24-well blocks in an E. coli host derived from the BL21 strain. E. coli were grown to log-phase and infected with T7 phage from a frozen stock (multiplicity of infection=0.4) and incubated with shaking at 32° C. until lysis (90-150 minutes). The lysates were centrifuged (6,000×g) and filtered (0.2 μm) to remove cell debris. The remaining kinases were produced in HEK-293 cells and subsequently tagged with DNA for qPCR detection. […] The liganded beads were blocked with excess biotin and washed with blocking buffer (SeaBlock (Pierce), 1% BSA, 0.05% Tween 20, 1 mM DTT) to remove unbound ligand and to reduce non-specific phage binding.
Test compounds were prepared as 40× stocks in 100% DMSO and directly diluted into the assay. […] The kinase concentration in the eluates was measured by qPCR.

FGFR (G697C) = molecular target: T2, FGFR (G697C) (Homo sapiens, UniProt P22607, G697C); experiment: as above; conditions: Compounds were tested at 500 nM; read-out: FGFR (G697C) (Percent Control)
T2 construct: made in house
Protocol: Kinase-tagged T7 phage strains were grown in parallel in 24-well blocks in an E. coli host derived from the BL21 strain. E. coli were grown to log-phase and infected with T7 phage from a frozen stock (multiplicity of infection=0.4) and incubated with shaking at 32° C. until lysis (90-150 minutes). The lysates were centrifuged (6,000×g) and filtered (0.2 μm) to remove cell debris. The remaining kinases were produced in HEK-293 cells and subsequently tagged with DNA for qPCR detection. Streptavidin-coated magnetic beads were treated with biotinylated small molecule ligands for 30 minutes at room temperature to generate affinity resins for kinase assays. The liganded beads were blocked with excess biotin and washed with blocking buffer (SeaBlock (Pierce), 1% BSA, 0.05% Tween 20, 1 mM DTT) to remove unbound ligand and to reduce non-specific phage binding.
Binding reactions were assembled by combining kinases, liganded affinity beads, and test compounds in 1× binding buffer (20% SeaBlock, 0.17×PBS, 0.05 Tween 20, 6 mM DTT). Test compounds were prepared as 40× stocks in 100% DMSO and directly diluted into the assay. All reactions were performed in polypropylene 384-well plates in a final volume of 0.02 mL. The assay plates were incubated at room temperature with shaking for 1 hour and the affinity beads were washed with wash buffer (1×PBS, 0.05% Tween 20). […]

Daudi cells = experiment: Daudi Cell Proliferation (WST-1 cell viability); assay type: cell-based; conditions: Homo sapiens, 96 h; Daudi cells (Burkitt lymphoma cell line), treated for 4 days, viability by WST-1 relative to vehicle control
Protocol: Daudi cells, a Burkitt lymphoma cell line, was treated for 4 days with the indicated compound (10 nM, 100 nM, 1 μM, 10 μM, and 100 μM) or vehicle (DMSO), and cell viability was determined using the WST-1 tetrazolium reagent (Roche), and results were expressed as the percentage viability relative to the vehicle control, which was set at 100%. Based on resulting data, an IC50 was calculated for each compound.
IC50 values less than or equal to 2 μM are represented by “A;” IC50 values greater than 2 μM and less than or equal to 30 μM are represented by “B;” and IC50 values greater than 30 μM are represented by “C.”

T2 sequence (P22607 23-806 G697C): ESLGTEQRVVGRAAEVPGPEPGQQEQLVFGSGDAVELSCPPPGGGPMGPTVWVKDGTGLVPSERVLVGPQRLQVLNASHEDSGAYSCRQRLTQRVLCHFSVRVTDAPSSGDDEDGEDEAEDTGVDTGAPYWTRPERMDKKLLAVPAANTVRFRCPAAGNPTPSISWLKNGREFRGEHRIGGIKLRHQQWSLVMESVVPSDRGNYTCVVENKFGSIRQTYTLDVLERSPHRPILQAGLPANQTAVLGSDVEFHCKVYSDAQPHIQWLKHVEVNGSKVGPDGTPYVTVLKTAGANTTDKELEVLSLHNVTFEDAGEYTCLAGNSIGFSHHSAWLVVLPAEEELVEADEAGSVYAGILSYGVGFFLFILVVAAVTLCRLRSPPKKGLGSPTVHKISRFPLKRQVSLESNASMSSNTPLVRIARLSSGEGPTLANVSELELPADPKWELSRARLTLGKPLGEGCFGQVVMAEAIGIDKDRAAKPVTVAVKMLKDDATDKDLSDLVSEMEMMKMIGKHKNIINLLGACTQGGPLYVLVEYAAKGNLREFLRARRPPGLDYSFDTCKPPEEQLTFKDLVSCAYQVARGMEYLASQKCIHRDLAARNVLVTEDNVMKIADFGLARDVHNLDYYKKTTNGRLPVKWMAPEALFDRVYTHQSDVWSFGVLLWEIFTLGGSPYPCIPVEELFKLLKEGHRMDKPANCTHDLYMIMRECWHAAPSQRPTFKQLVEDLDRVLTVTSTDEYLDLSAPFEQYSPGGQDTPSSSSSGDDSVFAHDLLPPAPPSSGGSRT
T1 sequence (P07332 whole entry, species assumed): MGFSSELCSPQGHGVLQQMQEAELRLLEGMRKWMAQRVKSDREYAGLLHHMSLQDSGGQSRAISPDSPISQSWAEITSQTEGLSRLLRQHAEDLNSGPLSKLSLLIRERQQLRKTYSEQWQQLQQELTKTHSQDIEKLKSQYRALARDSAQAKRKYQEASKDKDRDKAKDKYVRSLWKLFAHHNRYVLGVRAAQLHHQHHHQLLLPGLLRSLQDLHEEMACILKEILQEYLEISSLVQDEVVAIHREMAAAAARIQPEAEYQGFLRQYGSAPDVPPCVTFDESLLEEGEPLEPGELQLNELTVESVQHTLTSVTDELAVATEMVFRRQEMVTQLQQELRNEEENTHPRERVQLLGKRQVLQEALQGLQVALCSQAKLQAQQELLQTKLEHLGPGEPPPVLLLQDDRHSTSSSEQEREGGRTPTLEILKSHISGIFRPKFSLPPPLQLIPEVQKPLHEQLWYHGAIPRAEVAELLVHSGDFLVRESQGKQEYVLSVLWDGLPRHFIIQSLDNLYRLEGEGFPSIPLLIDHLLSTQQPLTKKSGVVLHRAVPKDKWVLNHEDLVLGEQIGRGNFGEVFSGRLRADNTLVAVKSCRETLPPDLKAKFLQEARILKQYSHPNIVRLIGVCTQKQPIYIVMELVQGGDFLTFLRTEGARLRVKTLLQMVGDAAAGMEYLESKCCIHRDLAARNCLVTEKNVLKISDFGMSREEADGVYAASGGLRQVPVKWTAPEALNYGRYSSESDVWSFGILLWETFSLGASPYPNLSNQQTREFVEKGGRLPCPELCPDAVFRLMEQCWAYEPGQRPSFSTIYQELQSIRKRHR

Row | SMILES | remaining binding at 0.5 µM (FES) | remaining binding at 0.5 µM (FGFR (G697C)) | pIC50 (Daudi cells)
1 | Cc1cnc(Nc2ccc(OCCCNCC(=O)Nc3cccc4c3CN([C@H]3CCCC(=O)NC3=O)C4=O)cc2)nc1Nc1cccc(S(=O)(=O)NC(C)(C)C)c1 [Compound 66, (S)-2-((3-(4-((4-((3-(N-(tert-Butyl)sulfamoyl)phenyl)amino)-5-methylpyrimidin-2-yl)amino)phenoxy)propyl)amino)-N-(2-(2,7-dioxoazepan-3-yl)-1-oxoisoindolin-4-yl)acetamide] | 15% | 4.8% | –
2 | C=C(C)c1cccc2c1CN([C@H]1CCCC(=O)NC1=O)C2=O [Compound 43, (S)-3-(1-Oxo-4-(prop-1-en-2-yl)isoindolin-2-yl)azepane-2,7-dione] | – | – | ≥ 5.70
3 | Cc1cnc(Nc2ccc(OCCN3CCCC3)cc2)nc1Nc1cccc(S(=O)(=O)NC(C)(C)C)c1 [Fedratinib, reference compound] | – | 57% | –
4 | CC(C)c1cccc2c1CN([C@H]1CCCC(=O)NC1=O)C2=O [Compound 45, (S)-3-(4-Isopropyl-1-oxoisoindolin-2-yl)azepane-2,7-dione] | – | – | < 4.52
5 | Nc1cccc2c1CN(C1CCC(=O)NC1=O)C2=O (stereo not shown) [Lenalidomide, reference compound] | – | – | < 4.52
6 | O=C1CCC[C@H](N2Cc3c(cccc3C(F)F)C2=O)C(=O)N1 [Compound 42, (S)-3-(4-(Difluoromethyl)-1-oxoisoindolin-2-yl)azepane-2,7-dione] | – | – | 4.52 to 5.70
